Source: US8754233B2, “Pyrazolylbenzothiazole derivatives and their use as therapeutic agents” (Dermira (Canada), Inc., priority 2002, dated 2014)
Each block holds one compound with its values, some of them ahead of it.

Legend:
K5P5 podocyte cell line = assay: Survival assay in podocytes (PAN treatment, MTS); format: cell-based, murine; details: for IC50: Mus musculus, PAN treated, MTS; for % Survival: PAN treated K5P5 podocytes
Excerpt: The treatment of glomerular visceral epithelial cells (podocytes) with high concentrations of puromycin aminonucleoside (PAN) causes significant cytotoxic effects. An assessment of cell viability subsequent to a cytotoxic exposure can be judged qualitatively by examining changes in cell phenotype after staining with crystal violet or determined quantitatively by employing a cytotoxic assay using the soluble tetrazolium salt [3-(4,5-dimethylthiazol-2-yl)-5-(3-carboxymethoxyphenyl)-2-(4-sulfophenyl)-2H-tetrazolium, inner salt] (MTS). Such a system can be used to evaluate the survival effects that ILK compounds have on podocytes following exposure to PAN or other cytotoxic agents.
The cell line employed for the podocyte model was the murine K5P5. […] The cells should be propagate to a maximum of 20 passages.
The flasks were incubated at 37° C., 5% CO2 for 3 days.
The flasks were incubated at 37° C., 5% CO2 for 4 days.
Cells were trypsinized (0.25%), collected from the tissue culture flasks centrifuged, resuspended and counted. […] The flasks were incubated at 37° C., 5% CO2 for 3 days.
10 μl of this 10× compound solution is added to the 80 μl of cells already present in the 96-well plates. For cell undergoing cytotoxic treatment, puromycin aminonuceloside (PAN, Sigma P7130) was added at a 10× concentration to 90 μl of cells. The positive control is PAN treatment without compound. The negative control is 100% DMSO diluted to the same factor as the compounds without PAN.
The plates are incubated at 37° C., 5% CO2 for 48 to 72 hours depending on the PAN concentration (i.e. lower concentrations of PAN required a longer incubation period). The medium is aspirated after plates are spun at 2400 rpm for 10 min at ambient temperature. 100 μl of 1×DPBS (without CaCl2, without MgCl2) is added to each well.
The MTS (Promega) is prepared under low lighting conditions by dissolving 4.0 g of MTS in 1.8 I of 1×DPBS. The solution is allowed to sit for 10 minutes and pH adjusted to 6.2. […] Absorbance is measured at 490 nm wavelength with a microplate reader.

macrophages = assay: Survival of macrophages; format: cell-based, mouse; details: Mus musculus, Macrophage; stimulated primary macrophages
Procedure: Peritoneal exudate macrophages were isolated by peritoneal lavage with ice-cold sterile physiological saline 24 hours after intraperitoneal injection of BALB/c mice with 0.3 ml of sterile zymosan A (1 mg/0.5 mL 0.9% saline). […] 1.5×10^5 cells/well were seeded in 96-well plates and followed by 3 hour incubation at 37° C. with 5% CO2 (macrophages were allowed to attach) cells were stimulated with LPS ([…]/mL) and IFN-γ (100 U/mL) in the absence or presence of the test compounds. All treatments were replicated six times. Cells were incubated for an additional 24 hours, and cell free culture supernatants from each well were collected for NO and cytokine determination. The remaining cells were stained with crystal violet to determine effect of the compound on cell survival.

TNFa on macrophages = assay: Inhibition of TNFα release from stimulated macrophages; format: cell-based, mouse; details: Mus musculus, Macrophage; LPS and IFN-γ stimulated primary macrophages, ELISA
Procedure: Peritoneal exudate macrophages were isolated by peritoneal lavage with ice-cold sterile physiological saline 24 hours after intraperitoneal injection of BALB/c mice with 0.5 mL of sterile Zymosan A (1 mg/0.5 mL 0.9% saline). […] Murine primary macrophage will get activated following incubation with LPS in the presence of sub-optimal doses of IFN-γ. […] TNF-αlevels in the supernatants from stimulated macrophages were determined with PharMingen's OptEIA TNF-α kit (PharMingen). The experiment was performed at room temperature, about 21° C., unless otherwise stated. The microwells (F8 MaxiSorp™ Loose/Nunc-Immuno Module; Gibco/BRL) were coated with 100 μl/well of capture antibody (at the recommended concentration) and incubated overnight at 4° C. […] Next, the solution was removed and the plates were washed 5× with wash buffer. The TNF-αanalysis was initiated by adding duplicate samples (100 μl/well) or standards (100 μl/well) in diluent buffer which were incubated for 2 h. The solution was removed and the plates washed 5× with wash buffer. Enzyme reagent (100 μl) containing biotinylated mouse TNF-αmonoclonal antibody and avidin-horseradish peroxidase conjugate (at concentrations recommended by the manufacturer) was added to each well. The plate was incubated for 1 hour, the solution removed, and the plates washed 7× with wash buffer. […] Colour development was terminated by adding 50 μl of 2N H2SO4. […] Peritoneal exudate macrophages were isolated by peritoneal lavage with ice-cold sterile physiological saline 24 hours after intraperitoneal injection of BALB/c mice with 0.3 ml of sterile zymosan A (1 mg/0.5 mL 0.9% saline). […] All treatments were replicated six times. Cells were incubated for an additional 24 hours, and cell free culture supernatants from each well were collected for NO and cytokine determination. The remaining cells were stained with crystal violet to determine effect of the compound on cell survival.

MCP1 on HUVECS = assay: Inhibition of MCP-1 release from TNFα-stimulated HUVEC; format: cell-based, human; details: Homo sapiens, 18-24 hours, ELISA
Excerpt: The activation of endothelial cells by pro-inflammatory cytokine TNF-α leads to the production of several chemokines. The release of these chemokines play an important role in leukocyte trafficking and extravasation of leukocytes into tissue during inflammation. MCP-1 and IL-8 are among the chemokines released upon stimulation of human endothelial cells (HUVECs) by TNFα, and contribute to migration of monocytes to the sites of inflammation. Cells should not be passaged more than 6 times.
Cells were maintained and grown in tissue culture flasks (T75) in endothelial cell growth medium (EGM, Clonetics) containing 5 additional supplements (EGM-5) in medium [human recombinant endothelial growth factor (hEGF), hydrocortisone (HC), bovine brain extract (BBE), fetal bovine serum (FBS) and Gentamycin (GA)] incubated at 37° C., 5% CO2. The cells should be propagated a maximum of 20 passages.
The plates were incubated overnight at 37° C., 5% CO2 to enable the cells to attach and grow.
The working concentration of TNFα was 1,000 pg/ml. A twenty times working concentration of TNFα was 20,000 pg/ml was prepared using EGM-5. The test compounds, DMSO negative vehicle control and staurosporine positive control were diluted 20× using EGM-5. Ten μL each of the compounds, DMSO and staurosporine were combined with 180 μl of medium containing HUVEC cells. Immediately following the addition of the compounds, 10 μl of […] TNFα was added to the wells. Medium without TNFα was added to the control wells. […] The plates were incubated at 37° C. in 5% CO2 in humidified conditions overnight (18-24 hours) for TNFα.
At the completion of the stimulation, the plates were spun at 2000 rpm for 10 minutes. The supernatants from each well were transferred to fresh plates for MCP1 analysis by ELISA.
[…] were determined with PharMingen's OptEIA™ MCP1 Kit (PharMingen) according to manufacturer's instructions.
The data is represented as a percentage of MCP1 inhibition by the following formula: % MCP1 inhibition=100−(AVG treatment/AVG DMSO control)*100.

ConA 1° splenocytes = assay: Survival of ConA 1° splenocytes (cytotoxicity by MTS staining); format: cell-based, mouse; details: ConA-stimulated splenocytes
Procedure: (§1) The working concentration of ConA was […]. A 20× working concentration of Concanavalin A was […] was prepared using RPMI-5. The test compounds, dimethylsulfoxide (DMSO) negative vehicle control and staurosporine positive control were diluted twenty times using RPMI-5. Ten μL each of DMSO and staurosporine were combined with 180 μl of medium containing splenocytes in the wells, and 10 μl of 50 μg/ml ConA was immediately added. Medium without ConA was added to the control wells. […] The plates were incubated at 37° C. in 5% CO2 in humidified conditions overnight (18-24 hours) for INFγ.
(MTS). The MTS solution was made fresh and under low light. The electron coupling reagent phenazine methosulfate (PMS) was added at the time of the assay. Twenty μL of MTS solution per 100 μl of tissue culture medium was added to each well. The plates were incubated 37° C. for 4 hours for unstimulated and 18-24 ConA stimulated splenocytes. The absorbance was read at 490 nm wavelength. A kit available to do this assay is “CellTiter 96® AQ Kit AQueous Kit (G5421)” by Promega.

[1] = tested on: IFNg on ConA 1° splenocytes; assay: Inhibition of IFNγ release from ConA-stimulated splenocytes; format: cell-based, mouse; details: ConA-stimulated Balb/c splenocytes, 18-24 hours, ELISA
Procedure: T-lymphocytes obtained from mice spleens are a suitable sample for studying the activation properties of this immunologically important cell type. T-lymphocytes are the main regulators for inflammation. Concanavalin A (ConA) is an effective activator of T-lymphocytes, which allows T-lymphocytes to proliferate and produce inflammatory cytokines, such as Interferon (IFNγ) and regulatory cytokines, such as Interleukin 10 (IL-10).
The spleens were transferred onto mesh screen containing 10 ml of ice cold RPMI-5 (1× sodium pyruvate and 5% FBS) and gently ground with a pestle. The cell suspensions were centrifuged at 1500 rpm for 6 minutes at 4° C. […] The supernatant was discarded and the pellet washed two additional times. The cells were resuspended in RPMI-5 and the cell suspensions combined. The cells were counted and their concentration was adjusted to 2.8×10^6 cells/ml using RPMI-5.
as §1
At the completion of the stimulation described above, the plates were spun at 2000 rpm for 10 minutes. The supernatants (100 μl) from each well were transferred to fresh plates for INFγ analysis by ELISA.
INFγ levels in the supernatants from stimulated lymphocytes were determined with PharMingen's OptEIA™ INFγ Kit (PharMingen) according to manufacturer's directions. The data, shown in Table 2 infra, is represented as a percentage of INFγ inhibition by the following formula: INFγ inhibition=100−(AVG treatment/AVG DMSO control)*100.

Compound: CNS(=O)(=O)c1ccc2nc(-c3c(N)n[nH]c3C)sc2c1 [2-(3-Amino-5-methyl-1H-pyrazol-4-yl)benzothiazole-6-sulfonic acid methylamide]
- IC50 (K5P5 podocyte cell line): 12.5 µM

Compound: Cc1n[nH]c(N)c1-c1nc2cc(F)c(S(=O)(=O)NCCO)cc2s1 [2-(5-Amino-3-methyl-1H-pyrazol-4-yl)-5-fluorobenzothiazole-6-sulfonic acid (2-hydroxy-ethyl)-amide]
- IC50 (ConA 1° splenocytes; Mus musculus, Splenocyte): > 25 µM
- % Survival (K5P5 podocyte cell line; @ 25 μM): 30%

Compound: Cc1cc2sc(-c3cn[nH]c3N)nc2cc1F [4-(5-Fluoro-6-methylbenzothiazol-2-yl)-2H-pyrazol-3-ylamine]
- IC50 (ConA 1° splenocytes; Mus musculus, Splenocyte): > 25 µM
- IC50 ([1]; Mus musculus, Splenocyte): > 25 µM

Compound: Cc1n[nH]c(N)c1-c1nc2cc(F)c(S(N)(=O)=O)cc2s1 [2-(5-Amino-3-methyl-1H-pyrazol-4-yl)-5-fluoro-benzothiazole-6-sulfonic acid amide]
- IC50 (TNFa on macrophages): 0.9 µM
- % Survival (K5P5 podocyte cell line; @ 12.5 μM): 30%

Compound: COc1ccc2nc(-c3c(N4CCNCC4)n[nH]c3N)sc2c1 [4-(6-Methoxybenzothiazole)-5-piperizin-1-yl-2H-pyrazol-3-ylamine]
- IC50 (ConA 1° splenocytes): 20.5 µM
- IC50 [1]: 5.9 µM

Compound: Nc1n[nH]cc1-c1nc2ccc(F)cc2s1 [4-(6-Fluorobenzothiazol-2-yl)-1H-pyrazol-3-ylamine]
- IC50 (macrophages): > 25 µM
- IC50 (TNFa on macrophages): > 25 µM
- IC50 (MCP1 on HUVECS): ~25 µM

Compound: COc1cc2sc(-c3c(-c4ccco4)n[nH]c3N)nc2cc1F [4-(5-Fluoro-6-methoxybenzothiazol-2-yl)-5-furan-2-yl-2H-pyrazol-3-ylamine]
- IC50 (K5P5 podocyte cell line): 2.5 µM

Compound: CNCc1ccc2nc(-c3c(C)n[nH]c3N)sc2c1 [5-Methyl-4-(6-methylaminomethylbenzothiazol-2-yl)-2H-pyrazol-3-ylamine]
- IC50 (ConA 1° splenocytes; Mus musculus, Splenocyte): 0.9 µM
- IC50 ([1]; Mus musculus, Splenocyte): 0.5 µM

Compound: Cc1n[nH]c(N)c1-c1nc2ccc(CN(C)C)cc2s1 [4-(6-Dimethylaminomethylbenzothiazol-2-yl)-5-methyl-2H-pyrazol-3-ylamine]
- IC50 (K5P5 podocyte cell line): 12.5 µM

Continued, in another order:

- IC50 (TNFa on macrophages): > 25 µM
Compound: Cc1n[nH]cc1-c1nc2ccccc2s1 [2-(3-Methyl-1H-pyrazol-4-yl)-benzothiazole]
- IC50 (macrophages): > 25 µM
- IC50 (MCP1 on HUVECS): > 25 µM

- IC50 (TNFa on macrophages): > 25 µM
Compound: Nc1n[nH]c(CCCO)c1-c1nc2ccccc2s1 [3-(5-Amino-4-benzothiazol-2-yl-2H-pyrazol-3-yl)-propan-1-ol]
- IC50 (MCP1 on HUVECS): ~25 µM

- IC50 (TNFa on macrophages): > 25 µM
Compound: COc1cc2sc(-c3c(-c4ccncc4)n[nH]c3N)nc2cc1F [4-(5-Fluoro-6-methoxybenzothiazol-2-yl)-5-pyridin-4-yl-2H-pyrazol-3-ylamine]
- IC50 (ConA 1° splenocytes; Mus musculus, Splenocyte): > 25 µM
- IC50 (macrophages): > 25 µM
- IC50 (MCP1 on HUVECS): > 25 µM

- IC50 ([1]; Mus musculus, Splenocyte): 0.368 µM
Compound: CNS(=O)(=O)c1cc2sc(-c3c(N)n[nH]c3C)nc2cc1F [2-(3-Amino-5-methyl-1H-pyrazol-4-yl)-5-fluorobenzothiazole-6-sulfonic acid methylamide]

- IC50 [1]: 10.2 µM
Compound: COc1cc2sc(-c3c(NCCCN(C)C)n[nH]c3N)nc2cc1F [N^3-(3-Dimethylaminopropyl)-4-(5-fluoro-6-methoxybenzothiazole)-1H-pyrazole-3,5-diamine]
- IC50 (ConA 1° splenocytes): ~25 µM

- IC50 (TNFa on macrophages): > 25 µM
Compound: Nc1[nH]nc(N2CCNCC2)c1-c1nc2ccccc2s1 [4-Benzothiazol-2-yl-5-piperazin-1-yl-2H-pyrazol-3-ylamine]
- IC50 (macrophages): > 25 µM
